# Measurements taken from patent US20260053811A1, “METHODS OF TREATING HYPERTENSION IN OBESE SUBJECTS” (Mineralys Therapeutics, Inc., priority 2022, published 2026).
# Marks after values point to notes of the source that are not given here.
# Assays:
# Format in all cases: in vivo, human
# hypertensive subjects [1] = assay: Serum sodium; details: active treatment cohorts; Parts 1 and 2
# hypertensive subjects [2] = assay: Serum potassium; details: for Increase in potassium levels relative to baseline: Week 8; for Individuals with increased serum K+, Mild 5.6-6.0 mMol/L (number) / Individuals with increased serum K+, Mild 5.6-6.0 mMol/L (percent) / Individuals with increased serum K+, Moderate 6.1-6.5 mMol/L / Individuals with increased serum K+, Severe >6.5 mMol/L: during treatment
# Text: Safety endpoints of this study are: • (a) Incidence and severity of all spontaneously reported adverse events (AEs) • (b) Changes in vital signs (standing SBP, standing DBP, body temperature, heart rate, and respiratory rate) • (c) Changes in electrocardiogram parameters (including cardiac intervals: PR, QRS, QT, and corrected QT interval using Fridericia's formula) • (d) Changes in clinical laboratory assessments (hematology, chemistry, coagulation, and urinalysis) • (e) Change in office-measured SBP from Study Week 8 (end-of-treatment period to end of follow up (i.e. end of Study Week 12 for Part 1 and end of Study 10 for Part 2).
# The Safety Analysis Set includes all enrolled subjects who received at least one dose of study treatment (MLS-101 or placebo). In analyses performed on the Safety Analysis Set, subjects will be analyzed according to their actual treatment received.
# serum aldosterone = assay: Serum aldosterone (pharmacodynamic response); details: for Reduction in median serum aldosterone compared to baseline: week 4, low renin subjects (Part-1); for Aldosterone levels, change relative to baseline, range across active arms / Aldosterone, Mean (SD) Observed / Aldosterone, Mean (SD) Percent Change from Baseline: Part 1
# Text: PK/PD Analysis Set includes all subjects in the SAF who have sufficient data available for the analysis of pharmacokinetic and pharmacodynamic measurements. In the analyses based on PKPD, subjects will be analyzed according to the actual treatment received.
smiles,measurement,setting,value
CC(=O)N[C@H]1CC[C@H](NC(=O)CN2CCN(c3nncc(-c4ccc(C)cc4)n3)CC2)CC1 [Compound A HBr],Serum sodium levels,hypertensive subjects [1],decreased
same,Increase in potassium levels relative to baseline,"hypertensive subjects [2]; 25 mg BID, Part 1",0.341 mmol/L
same,Serum K+ Mean Change from Baseline to Wk 8,hypertensive subjects [2]; 50 mg QD (n = 28),+0.25 mmol/L
same,"Individuals with increased serum K+, Mild 5.6-6.0 mMol/L (number)",hypertensive subjects [2]; 50 mg QD (n = 28),1
same,"Individuals with increased serum K+, Mild 5.6-6.0 mMol/L (percent)",hypertensive subjects [2]; 50 mg QD (n = 28),(10.7%)
same,"Individuals with increased serum K+, Moderate 6.1-6.5 mMol/L",hypertensive subjects [2]; 50 mg QD (n = 28),0
same,Serum K+ Mean Change from Baseline to Wk 8,hypertensive subjects [2]; 100 mg QD (n = 61),+0.29 mmol/L
same,"Individuals with increased serum K+, Mild 5.6-6.0 mMol/L (number)",hypertensive subjects [2]; 100 mg QD (n = 61),8
same,"Individuals with increased serum K+, Mild 5.6-6.0 mMol/L (percent)",hypertensive subjects [2]; 100 mg QD (n = 61),(13.1%)
same,"Individuals with increased serum K+, Moderate 6.1-6.5 mMol/L",hypertensive subjects [2]; 100 mg QD (n = 61),1 (1.6%)
same,"Individuals with increased serum K+, Severe >6.5 mMol/L",hypertensive subjects [2]; 100 mg QD (n = 61),1 (1.6%)
same,Number of individuals with verified or multiple increased serum K+ 5.2-5.5 mMol/L,"hypertensive subjects [2]; 100 mg QD, Part 1",5
same,Number of individuals with verified or multiple increased serum K+ 5.6-6.0 mMol/L,"hypertensive subjects [2]; 100 mg QD, Part 1",3
same,Number of individuals with verified or multiple increased serum K+ 6.1-6.5 mMol/L,"hypertensive subjects [2]; 100 mg QD, Part 1",0
same,Percent of individuals with verified or multiple increased serum K+ 5.2-5.5 mMol/L,"hypertensive subjects [2]; 100 mg QD, Part 1",(18.5%)
same,Percent of individuals with verified or multiple increased serum K+ 5.6-6.0 mMol/L,"hypertensive subjects [2]; 100 mg QD, Part 1",(10.7%)
same,Number of individuals with increased serum K+ >6.5 mMol/L,"hypertensive subjects [2]; 100 mg QD, Part 1, isolated incident not verified by repeat measurement",1*
same,Number of individuals with verified or multiple increased serum K+ 5.2-5.5 mMol/L,"hypertensive subjects [2]; 100 mg QD, Part 2",1
same,Number of individuals with verified or multiple increased serum K+ 5.6-6.0 mMol/L,"hypertensive subjects [2]; 100 mg QD, Part 2",0
same,Number of individuals with verified or multiple increased serum K+ 6.1-6.5 mMol/L,"hypertensive subjects [2]; 100 mg QD, Part 2",0
same,Number of individuals with verified or multiple increased serum K+ >6.5 mMol/L,"hypertensive subjects [2]; 100 mg QD, Part 2",0
same,Percent of individuals with verified or multiple increased serum K+ 5.2-5.5 mMol/L,"hypertensive subjects [2]; 100 mg QD, Part 2",(4%)
same,Increase in potassium levels relative to baseline,"hypertensive subjects [2]; 100 mg QD, Part 2",0.208 mmol/L
same,Number of individuals with verified or multiple increased serum K+ 5.2-5.5 mMol/L,"hypertensive subjects [2]; 100 mg QD, Pooled",6
same,Number of individuals with verified or multiple increased serum K+ 5.6-6.0 mMol/L,"hypertensive subjects [2]; 100 mg QD, Pooled",3
same,Number of individuals with verified or multiple increased serum K+ 6.1-6.5 mMol/L,"hypertensive subjects [2]; 100 mg QD, Pooled",0
same,Number of individuals with verified or multiple increased serum K+ >6.5 mMol/L,"hypertensive subjects [2]; 100 mg QD, Pooled",0
same,Percent of individuals with verified or multiple increased serum K+ 5.2-5.5 mMol/L,"hypertensive subjects [2]; 100 mg QD, Pooled",(10.3%)
same,Percent of individuals with verified or multiple increased serum K+ 5.6-6.0 mMol/L,"hypertensive subjects [2]; 100 mg QD, Pooled",(5.2%)
same,"Individuals with increased serum K+, Mild 5.6-6.0 mMol/L (number)",hypertensive subjects [2]; All Active (n = 163),16
same,"Individuals with increased serum K+, Mild 5.6-6.0 mMol/L (percent)",hypertensive subjects [2]; All Active (n = 163),(9.8%)
same,"Individuals with increased serum K+, Moderate 6.1-6.5 mMol/L",hypertensive subjects [2]; All Active (n = 163),4 (2.5%)
same,"Individuals with increased serum K+, Severe >6.5 mMol/L",hypertensive subjects [2]; All Active (n = 163),2*
same,"Change in group mean serum potassium (K+), Mean",hypertensive subjects [2]; Part 1 (N 26),+0.50 mMol/L
same,"Change in group mean serum potassium (K+), Mean","hypertensive subjects [2]; Part 1, N 26*",+0.50 mMol/L
same,"Change in group mean serum potassium (K+), Mean",hypertensive subjects [2]; Part 2 (N 31),+0.23 mMol/L
same,"Change in group mean serum potassium (K+), Mean","hypertensive subjects [2]; Part 2, N 31",+0.23 mMol/L
same,Subjects with transient elevated serum potassium greater than 6.0 mmol/L,"hypertensive subjects [2]; Parts 1 and 2, listed as lorundrostat",seven
same,"Change in group mean serum potassium (K+), Mean",hypertensive subjects [2]; Pooled (N 57),+0.35 mMol/L
same,"Change in group mean serum potassium (K+), Mean","hypertensive subjects [2]; Pooled, N 57",+0.35 mMol/L
same,Serum potassium levels compared with placebo,"hypertensive subjects [2]; active treatment cohorts, Parts 1 and 2",increased
same,Reduction in median serum aldosterone compared to baseline,serum aldosterone; 25 mg BID,9.6%
same,Reduction in median serum aldosterone compared to baseline,serum aldosterone; 50 mg QD,65.2%
same,Reduction in median serum aldosterone compared to baseline,serum aldosterone; 100 mg QD,70.0%
same,"Aldosterone levels, change relative to baseline, range across active arms",serum aldosterone; Week 4,−40.1% to 7.4%
same,"Aldosterone levels, change relative to baseline, range across active arms",serum aldosterone; Week 12,−26.6% to 15.9%
same,"Aldosterone, Mean (SD) Observed","serum aldosterone; Wk 4, 12.5 mg BID",4.447 (3.681) ng/dL
same,"Aldosterone, Mean (SD) Percent Change from Baseline","serum aldosterone; Wk 4, 12.5 mg BID",−37.86 (35.66) %
same,"Aldosterone, Mean (SD) Observed","serum aldosterone; Wk 4, 12.5 mg QD",6.132 (4.606) ng/dL
same,"Aldosterone, Mean (SD) Percent Change from Baseline","serum aldosterone; Wk 4, 12.5 mg QD",7.39 (91.87) %
same,"Aldosterone, Mean (SD) Observed","serum aldosterone; Wk 4, 25 mg BID",3.192 (3.274) ng/dL
same,"Aldosterone, Mean (SD) Percent Change from Baseline","serum aldosterone; Wk 4, 25 mg BID",1.66 (233.60) %
same,"Aldosterone, Mean (SD) Observed","serum aldosterone; Wk 4, 50 mg QD",3.923 (5.283) ng/dL
same,"Aldosterone, Mean (SD) Percent Change from Baseline","serum aldosterone; Wk 4, 50 mg QD",−40.06 (70.25) %
same,"Aldosterone, Mean (SD) Observed","serum aldosterone; Wk 4, 100 mg QD",4.000 (4.252) ng/dL
same,"Aldosterone, Mean (SD) Percent Change from Baseline","serum aldosterone; Wk 4, 100 mg QD",−32.18 (75.13) %
same,"Aldosterone, Mean (SD) Observed","serum aldosterone; Wk 12, 12.5 mg BID",6.765 (4.085) ng/dL
same,"Aldosterone, Mean (SD) Percent Change from Baseline","serum aldosterone; Wk 12, 12.5 mg BID",1.97 (66.85) %
